Source: ChEMBL document CHEMBL1124264, “Predictive structure-activity relationships in a series of pyranoquinoline derivatives. A new primate model for the identification of antiallergic activity” (J Med Chem, 1988)

How the values were obtained:
[1] = Biological activity expressed as the Log potency ratio (PR) of the compound relative to a standard compound 63; type: ADME; details: octanol/water
[2] = tested on: Monkey; assay: In vitro inhibition of anti-IgE induced histamine release from bronchoalveolar mast cells of monkey infected with Ascaris suum; type: functional, Cercopithecidae, Lung
[3] = Dissociation constant (eq 2); type: physicochemical; details: read-out: pK3
[4] = log PR value (eq 2); type: ADME; details: octanol/water
[5] = log PR value using spectrophotometric method; type: ADME; details: octanol/water
[6] = Dissociation constant using spectrophotometric method; type: physicochemical
[7] = Dissociation constant (pKa1) using partition method; type: physicochemical; details: read-out: pKa1
[8] = Dissociation constant (pKa2) using partition method; type: physicochemical; details: read-out: pKa2

Row | Compound | Log PR [1] | Potency ratio [2] | also measured
1 | CCCc1c2nc(C(=O)[O-])cc(C3OCCCO3)c2cc2c(=O)cc(C(=O)[O-])oc12.[Na+].[Na+] | -0.75 | 0.179 | 
2 | CCCc1c2nc(C(=O)[O-])cc(C(F)(F)C(F)(F)F)c2cc2c(=O)cc(C(=O)[O-])oc12.[Na+].[Na+] | 0.45 | 2.83 | 
3 | CCCc1c2nc(C(=O)[O-])cc(S(=O)Oc3ccccc3)c2cc2c(=O)cc(C(=O)[O-])oc12.[Na+].[Na+] (stereo not drawn) | -0.27 | 0.536 | 
4 | CCCc1c2nc(C(=O)[O-])cc(NC(=O)Nc3ccccc3)c2cc2c(=O)cc(C(=O)[O-])oc12.[Na+].[Na+] | -0.05 | 0.895 | 
5 | CCCc1c2nc(C(=O)[O-])ccc2cc2c(=O)cc(C(=O)[O-])oc12.[Na+].[Na+] | -1 | 0.1 | 
6 | CCCc1c2nc(C(=O)[O-])cc(C(F)(F)C(F)(F)C(F)(F)F)c2cc2c(=O)cc(C(=O)[O-])oc12.[Na+].[Na+] | 0.57 | 3.725 | 
7 | CCCc1c2nc(C(=O)[O-])cc(Sc3ccccc3)c2cc2c(=O)cc(C(=O)[O-])oc12.[Na+].[Na+] | 0.88 | 7.54 | 
8 | CCCc1c2nc(C(=O)[O-])cc(/C=C/c3ccccc3)c2cc2c(=O)cc(C(=O)[O-])oc12.[Na+].[Na+] | 0.8 | 6.326 | 
9 | CCCc1c2nc(C(=O)[O-])cc(N3CCCC3)c2cc2c(=O)cc(C(=O)[O-])oc12.[Na+].[Na+] | 0.14 | 0.017 | pKa [3]: 8.75; Log PR [4]: -1.25
10 | CCCc1c2nc(C(=O)[O-])cc(-n3cccc3)c2cc2c(=O)cc(C(=O)[O-])oc12.[Na+].[Na+] | 0.43 | 2.686 | 
11 | CCCc1c2nc(C(=O)[O-])cc(Oc3ccccc3)c2cc2c(=O)cc(C(=O)[O-])oc12.[Na+].[Na+] | 0.51 | 3.244 | 
12 | CCCc1c2nc(C(=O)[O-])cc(Nc3ccccc3)c2cc2c(=O)cc(C(=O)[O-])oc12.[Na+].[Na+] | -0.15 | 0.706 | Log PR [5]: 0.39; pKa [6]: 7.78
13 | CCCc1c2nc(C(=O)[O-])cc(/C=N/NC(=O)c3ccccc3)c2cc2c(=O)cc(C(=O)[O-])oc12.[Na+].[Na+] | -0.13 | 0.748 | 
14 | CCCc1c2nc(C(=O)[O-])cc(C(F)(F)F)c2cc2c(=O)cc(C(=O)[O-])oc12.[Na+].[Na+] | 0.4 | 2.53 | 
15 | CCCCCNc1cc(C(=O)[O-])nc2c(CCC)c3oc(C(=O)[O-])cc(=O)c3cc12.[Na+].[Na+] | -1.27 | 0.053 | Log PR [5]: 0.05; pKa [6]: 8.7
16 | CCCc1c2nc(C(=O)[O-])cc(N(C)C(C)=O)c2cc2c(=O)cc(C(=O)[O-])oc12.[Na+].[Na+] | -2.05 | 0.009 | 

The next lines start with results.

Row | Log PR [1] | Compound | Potency ratio [2] | also measured
17 | 0.37 | CCCc1c2nc(C(=O)[O-])cc(O)c2cc2c(=O)cc(C(=O)[O-])oc12.[Na+].[Na+] | 2.366 | 
18 | -0.23 | CCCc1c2nc(C(=O)[O-])cc(C(F)F)c2cc2c(=O)cc(C(=O)[O-])oc12.[Na+].[Na+] | 0.586 | 
19 | -0.63 | CCCc1c2nc(C(=O)[O-])cc(C=O)c2cc2c(=O)cc(C(=O)[O-])oc12.[Na+].[Na+] | 0.237 | 
20 | -1.19 | CCCc1c2nc(C(=O)[O-])cc(NC(C)=O)c2cc2c(=O)cc(C(=O)[O-])oc12.[Na+].[Na+] | 0.065 | 
21 | 0.02 | CCCc1c2nc(C(=O)[O-])cc(Br)c2cc2c(=O)cc(C(=O)[O-])oc12.[Na+].[Na+] | 1.04 | 
22 | 0.04 | CCCc1c2nc(C(=O)[O-])cc(Cl)c2cc2c(=O)cc(C(=O)[O-])oc12.[Na+].[Na+] | 1.096 | 
23 | -1.27 | CCCc1c2nc(C(=O)[O-])cc(C(=O)[O-])c2cc2c(=O)cc(C(=O)[O-])oc12.[Na+].[Na+].[Na+] | 0.053 | 
24 | -2.15 | CCCc1c2nc(C(=O)[O-])cc(NCC)c2cc2c(=O)cc(C(=O)[O-])oc12.[Na+].[Na+] | 0.007 | Log PR [5]: -0.89; pKa [6]: 8.64
25 | -0.4 | CCCc1c2nc(C(=O)[O-])cc(OCC)c2cc2c(=O)cc(C(=O)[O-])oc12.[Na+].[Na+] | 0.4 | 
26 | 0.35 | CCCc1c2nc(C(=O)[O-])cc(SCC)c2cc2c(=O)cc(C(=O)[O-])oc12.[Na+].[Na+] | 2.249 | 
27 | -0.42 | CCCc1c2nc(C(=O)[O-])cc(C)c2cc2c(=O)cc(C(=O)[O-])oc12.[Na+].[Na+] | 0.379 | 
28 | 0.12 | CCCc1c2nc(C(=O)[O-])cc(N)c2cc2c(=O)cc(C(=O)[O-])oc12.[Na+].[Na+] | 0.057 | pKa [3]: 8.75; Log PR [4]: -1.25
29 | -0.29 | CCCc1c2nc(C(=O)[O-])cc(N(C)C)c2cc2c(=O)cc(C(=O)[O-])oc12.[Na+].[Na+] | 0.063 | pKa [3]: 8.26; Log PR [4]: -1.2
30 | 0.07 | CCCc1c2nc(C(=O)[O-])cc(C#N)c2cc2c(=O)cc(C(=O)[O-])oc12.[Na+].[Na+] | 1.161 | 
31 | -0.66 | CCCc1c2nc(C(=O)[O-])cc(NC)c2cc2c(=O)cc(C(=O)[O-])oc12.[Na+].[Na+] | 0.012 | pKa [3]: 8.63; pKa [7]: 0.5; pKa [8]: 1.62; Log PR [4]: -1.91
